Test results taken from patent US20050137247A1, “Methods and compositions for treatment of hypertension” (The Brigham and Women's Hospital, Inc., priority 2003, published 2005).
Several values for one entry are separate records, joined by “and”; a condition that tells them apart may be missing. Identical values can stand only once. Entries after “also recorded” stand apart in the source; their conditions may differ.

Columns and labels:
Format in all cases: in vivo, human
[1] = system: male patients with untreated, uncomplicated, essential hypertension; test: Actigraphic estimates of sleep quality (Actiwatch)
Protocol: (§1) Measurements. […] Ambulatory blood pressure was measured every half hour for 32 hours, from 8 hours before bedtime until bedtime the next day. In addition, noninvasive finger arterial blood pressure recordings were performed by Finometer (TNO Biomedical Instruments, Amsterdam, The Netherlands) (Bos, W. J., et al., Circulation, 94 (1996) 1870-5), to estimate changes in total peripheral resistance, stroke volume, and cardiac output, as possible explanations for changes in blood pressure. […] During all ambulatory blood pressure recordings, the subjects reported sleep details in a sleep-wake diary and wore an Actiwatch (Cambridge Neurotechnology Ltd, Cambridge, UK), a piezo-electric accelerometer, on the non-dominant wrist to assess motor activity at 1 min intervals for the estimation of sleep quality.
(§2) Data analysis. Sleep blood pressure was defined as the mean blood pressure from the time of falling asleep until the time of awakening, as determined by actigraphy. Awake blood pressure was defined as the mean blood pressure during the remaining portion of the day. Continuous Finometer data were analyzed by Beatscope software (TNO-Biomedical Instruments, Amsterdam, The Netherlands) (Bos, W. J., et al., Circulation, 94 (1996) 1870-5). Periods of 5 min with a stable blood pressure signal were used for both supine and standing periods. To accurately determine the sleeping period and estimate sleep quality, automatic sleep/wake scoring was performed with Actiwatch Sleep Analysis 98 (Cambridge Neurotechnology Ltd, V4.15), with sensitivity set to medium, on the actigraphy data between “bed time” and “get up time” derived from the sleep-wake diaries. Three sleep variables were objectively computed by this analysis. ‘Sleep latency’ was the calculated time between bed time and sleep onset. The time asleep was termed actual sleep time. The percentage of time asleep while in bed was defined as ‘sleep efficiency’.

[2] = system: male patients with untreated, uncomplicated, essential hypertension; test: 24-hour rhythm analysis of ambulatory blood pressure (peaked and skewed cosine fit)
Excerpt: Statistics. Because not all variables were normally distributed (Shapiro's-Wilk's W Test), non-parametric tests were used as required. Consequently, Altman's crossover analysis methods were applied (Altman, D. G., Crossover trials, Practical statistics for medical research, Vol. 1, Chapman and Hall. London, 1991, pp. 467-471). […] Student's t-tests for independent variables or Mann-Whitney U tests were applied for all dependent variables to test a carryover effect for (1) single treatment periods, and (2) repeated treatment periods. Correlation between a change in sleep quality and a change in sleep blood pressure was tested by linear correlation. The 24-hour rhythm in blood pressure was fitted by standard cyclic regression models: cosine, cosine with second harmonic, skewed cosine, peaked cosine, and skewed and peaked cosine analysis (Batschelet, E., Circular Statistics in Biology, Academic Press, 1981, 371 pp.). Of these, the latter best fitted the data as indicated by the Akaike's Information Criterion (AIC) (de Leeuw, J., introduction to Akaike (1973) Information Theory and an Extension of the Maximum Likelihood Principle. In S. Kotz and N. L. Johnson (Eds.), Breakthroughs in statistics, Vol. 1, Springer-Verlag. London, 1992 pp. 599-609) and was used for subsequent analysis. Two-tailed p values lower than 0.05 were considered to indicate statistical significance. All group data are presented as means±standard deviation (SD) or means including 95% confidence interval (95% CI).
24-Hour rhythm analysis of ambulatory blood pressure. For 24-hour rhythm analysis of ambulatory blood pressure, the peaked and skewed cosine analysis was used. […] The decrease in minimum and mean systolic blood pressure was not significant (−6±15 mm Hg; p=0. 13 and −5±12 mm Hg; p=0. 19).

[3] = system: male patients with untreated, uncomplicated, essential hypertension; test: 24-hour ambulatory blood pressure and heart rate, randomized double-blind placebo-controlled crossover trial
Excerpt: Patients. Sixteen male patients with untreated, uncomplicated, essential hypertension were included in the study. Women were excluded to prevent possible interference of the menstrual cycle and oral anticonceptives on cardiovascular and circadian regulation. Patients were considered hypertensive, with a daytime ambulatory blood pressure between 140-179 mm Hg systolic or between 90-109 mm Hg diastolic. Secondary hypertension was excluded by medical history and routine laboratory tests. Five patients had never received antihypertensive medication; in the others antihypertensive treatment was stopped at least three weeks before participation. Their mean (±SD) age was 55±8 (range 36-68) years and mean BMI was 26.8±.1.7 (23.3-29.1) kg/m^2. Mean self reported habitual waking and bedtimes were 06:38 a.m. ±55 minutes and 11:29 p.m. ±26 minutes, respectively. […] Five days before and during ambulatory blood pressure measurements, subjects maintained fixed sleep-wake cycles according to their habitual sleep-wake cycle. All procedures were carried out with adequate understanding and written consent of the subjects and were approved by the Ethics Committee of the Academic Medical Center of the University of Amsterdam.
Study Design. […] On assessment days, patients abstained from heavy physical exercise, daytime napping, alcohol and nicotine consumption and coffee was restricted to two consumptions per day during breakfast or lunch. Meal times were restricted to the following periods: breakfast 1 to 1.5 hours after waking; lunch 11 to 10 hours before bedtime; and dinner 5 to 4 hours before bedtime.
as §1, §2
Statistics. Because not all variables were normally distributed (Shapiro's-Wilk's W Test), non-parametric tests were used as required. Consequently, Altman's crossover analysis methods were applied (Altman, D. G., Crossover trials, Practical statistics for medical research, Vol. 1, Chapman and Hall. London, 1991, pp. 467-471). […]

[4] = system: male patients with untreated, uncomplicated, essential hypertension; test: Finger arterial blood pressure recordings by Finometer; details: repeated melatonin; supine resting or standing, daytime
Protocol: as §1, §2

[5] = 3 weeks melatonin vs 3 weeks placebo
[6] = 3 weeks melatonin vs 3 weeks placebo, not significant
[7] = repeated melatonin vs placebo, no effect
[8] = acute (single) melatonin 2.5 mg vs single placebo
[9] = after 3 weeks melatonin 2.5 mg orally 1 hour before bedtime, mean ± SD
[10] = individual patient 14, relative to placebo level (FIG. 2)

SMILES: COc1ccc2[nH]cc(CCNC(C)=O)c2c1 [Melatonin, N-acetyl-5-methoxy-tryptamine]
- effect on actual sleep time ([1]; acute melatonin application): no significant effect
- effect on sleep latency ([1]; acute melatonin application): no significant effect
- sleep latency ([1]; after repeated melatonin (placebo 33 minutes)): 22 min
- actual sleep time ([1]; after repeated melatonin (placebo 5.6 hours)): 6.1 h
- decrease of calculated mean diastolic blood pressure [2, 5]: 4±6 mm Hg
- decrease of calculated minimum diastolic blood pressure [2, 5]: 5±7 mm Hg
- increase of day-night rhythm amplitude of diastolic blood pressure [2, 5]: 25%
- increase of day-night rhythm amplitude of systolic blood pressure [2, 5]: 15%
- change in mean systolic blood pressure [2, 6]: −5±12 mm Hg
- change in minimum systolic blood pressure [2, 6]: −6±15 mm Hg
- effect on time of the minimum blood pressure ([2]; repeated melatonin vs placebo): no effects
- change in maximum diastolic blood pressure [2, 7]: −1±5 mm Hg
- change in maximum systolic blood pressure [2, 7]: −2±12 mm Hg
- change in awake diastolic blood pressure [3, 6]: −1 mm Hg
- change in awake systolic blood pressure [3, 6]: −5 mm Hg
- effect on diastolic blood pressure awake [3, 8]: no effect
- effect on diastolic blood pressure whilst asleep [3, 8]: no effect
- effect on systolic blood pressure awake [3, 8]: no effect
- effect on systolic blood pressure whilst asleep [3, 8]: no effect
- Sleeping Period Distolic BP [3, 9]: 82.4 ± 4.0
- Sleeping Period Heart Rate [3, 9]: 61.1 ± 6.5
- Sleeping Period Systolic BP [3, 9]: 130.6 ± 10.0
- Waking Period Distolic BP [3, 9]: 95.4 ± 7.7
- Waking Period Heart Rate [3, 9]: 71.2 ± 7.8
- Waking Period Systolic BP [3, 9]: 147.6 ± 12.3
- effect of repeated melatonin on waking diastolic blood pressure, patient 14 [3, 10]: −27 mm Hg
- effect of repeated melatonin on waking systolic blood pressure, patient 14 [3, 10]: −53 mm Hg
- reduction of sleep diastolic blood pressure ([3]; repeated (3 weeks daily) 2.5 mg melatonin 1 hour before bedtime vs 3 weeks placebo): 4±6 mm Hg and 4 mm Hg
- effect on heart rate ([3]; repeated (3 weeks daily) 2.5 mg melatonin vs placebo): without a change; also recorded: did not affect
- effect on blood pressure ([3]; single dose of melatonin 2.5 mg): no effect
- effect on blood pressure (Finometer) [4]: no elect
- effect on cardiac output (Finometer) [4]: no elect
- effect on heart rate (Finometer) [4]: no elect
- effect on stroke volume (Finometer) [4]: no elect
- effect on total peripheral resistance (Finometer) [4]: no elect
